Experimental data taken from article PMC10261210 (Cancer Chemotherapy and Pharmacology, 2023).
“Also recorded” adds a separate entry of the source. Where two headings read alike, the source gives them in different places.

What was measured:
[1] = plasma pharmacokinetics (LC–MS/MS, noncompartmental analysis); format: in vivo, human; settings: for Tmax / AUC / Cmax / half-life: human, plasma; for Cmax: read-out: Cmax, geometric mean (%CV); for half-life: read-out: t1/2z, mean (range) (converted)
Procedure: In addition, for patients on Q2D schedules, predose or trough samples were collected on days 9 and 15 (Q2D dosing) or days 8 and 15 (QW dosing) to evaluate time to steady state. […] Plasma concentration–time analysis was performed using noncompartmental analysis. The plasma PK parameters were estimated using a validated version of Phoenix WinNonlin software (Version 6.3 or above, Pharsight Corporation, Raleigh, NC). Terminal half-life was calculated based on the equation: t1/2 = ln2/kel (kel = elimination rate constant determined by linear regression analysis of selected time points in the apparent terminal phase of the log plasma concentration versus time curve).

[2] = system: BRAF V600E mutant; parameters: method as in doi:10.1016/S1359-6349(10)71810-3; settings: preclinical studies; cited from earlier work
[3] = parameters: method as in PMID 28082416; settings: healthy brain and intracranial tumors (pediatric low-grade astrocytoma cells, KIAA1549-BRAF fusion); cited from earlier work
[4] = system: BRAF; parameters: method as in PMID 28082416; settings: cited from earlier work
[5] = system: neural progenitor cells transformed with KIAA1549-BRAF fusion protein; parameters: method as in PMID 28082416; settings: cited from earlier work
[6] = system: recurrent/progressive low-grade gliomas harboring MAPK pathway alterations; settings: cited from earlier work
[7] = system: BRAF-mutant, BRAF deletion mutation and NRAS-mutant xenograft tumor models; parameters: method as in doi:10.1016/S1359-6349(10)71810-3; settings: cited from earlier work
[8] = system: BRAF V600 mutant melanoma xenografts; parameters: method as in doi:10.1016/S1359-6349(10)71810-3; settings: mice; tumors remaining sensitive to a second dosing cycle; cited from earlier work
[9] = system: patients with relapsed or refractory advanced solid tumors; experiment: 3 + 3 dose escalation: DLT, MTD, RP2D; format: in vivo; settings: for MTD: 28-day cycles; for recommended phase 2 dose (RP2D): human, in vivo
Text: Prior to the initiation of QW dose escalation, the initial cycle length of 22 days was changed to 28 days by protocol amendment to improve clinical feasibility and better facilitate future combination studies. Patients enrolled prior to this protocol amendment in an ongoing Q2D dose escalation cohort continued on the 22-day cycle schedule until the cohort was full and all patients had been evaluated for dose-limiting toxicity (DLT). For both Q2D and QW regimens, dose escalation progressed according to the incidence of DLT in the first treatment cycle (either 22 days or 28 days). […] The MTD was defined as the highest dose level that generated DLT in 0/3 or 1/6 patients. On a case-by-case basis, the sponsor in collaboration with the principal investigators determined if intrapatient dose escalation was appropriate. Patients who had any dose reductions were not permitted to dose escalate.
The starting dose for the Q2D dose escalation phase was 20 mg, which was equivalent to one-tenth of the highest non-severely toxic dose (HNSTD) established in monkey toxicology studies. Dose escalation included planned dose levels of 40 mg, 80 mg, 135 mg, 200 mg, and 280 mg. […] In addition, a seventh Q2D cohort was to enroll sufficient patients (approximately 16) with any advanced solid tumor (excluding lymphoma) to ensure that 12 patients completed protocol-specified dosing and PK assessments scheduled during cycle 1.
The study was initially designed to investigate a Q2D schedule. Subsequently, a protocol amendment introduced planned QW dose escalation cohorts. The alteration in the dosing regimen from Q2D to QW was expected to reduce drug accumulation and increase Cmax while maintaining similar steady-state AUC. In addition, it was hypothesized that the increased Cmax might lead to a higher degree of pathway inhibition for a window of time within the dosing interval, without compromising overall dose density. Planned QW doses to be administered on days 1, 8, 15, and 22 of a 28-day cycle were a starting dose of 400 mg, followed by dose level increases of 200 mg (i.e., doses of 600 mg, 800 mg, and 1000 mg) in each subsequent cohort until the MTD/RP2D was reached.

[10] = system: relapsed or progressive LGGs harboring BRAF alterations; parameters: method as in ref 33 = [33]; 33. Kilburn L, Landi D, Leary S, Ziegler DS, Baxter P, Franson A, McCowage G, Waanders AJ, Van der Lugt J, Yalon Oren M, Gerber NU, Gottardo NG, Khuong-Quang D-A, Nysom K, Bailey S, Hernáiz Driever P; settings: interim analysis, first 25 enrolled patients with ≥ 6 months of follow-up, QW monotherapy; cited from earlier work
[11] = po, 400 mg, 400 mg QW oral, cycle 1 day 22, plasma, n 3
[12] = po, 600 mg, 600 mg QW oral, cycle 1 day 22, plasma, n 20
[13] = po, 800 mg, 800 mg QW oral, cycle 1 day 22, plasma, n 3
[14] = dose-escalation part, QW monotherapy, 8 patients with tumor RAF gene fusions

C[C@@H](NC(=O)c1ncnc(N)c1Cl)c1ncc(C(=O)Nc2cc(C(F)(F)F)c(Cl)cn2)s1 [tovorafenib]
dose dependence of steady-state AUC48 ([1]; 20 mg to 280 mg Q2D): approximately dose-proportional | dose dependence of steady-state exposure (AUC168) ([1]; 400 mg to 800 mg QW): approximately dose-proportional | power model coefficient, dose versus steady-state AUC168 ([1]; 400 mg to 800 mg QW, cycle 1 day 22, 95% CI 0.55–2.04): 1.30 | geometric mean Rauc ([1]; Q2D dosing regimen at 200 mg): ~ 2.55 | Tmax ([1]; oral, post-dose, Q2D and QW, read-out: overall median Tmax): 2 to 4 h | AUC ([1]; po, 20 mg, 20 mg Q2D oral, cycle 1 day 21, plasma, n 3, read-out: AUC48, geometric mean (%CV)): 10.4 µg·h/mL | Cmax ([1]; po, 20 mg, 20 mg Q2D oral, cycle 1 day 21, plasma, n 3): 302 ng/mL | Tmax ([1]; po, 20 mg, 20 mg Q2D oral, cycle 1 day 21, plasma, n 3, read-out: tmax, median (min, max)): 2 h | AUC ([1]; po, 40 mg, 40 mg Q2D oral, cycle 1 day 21, plasma, n 2, read-out: AUC48, geometric mean (%CV)): 20.9 µg·h/mL | Cmax ([1]; po, 40 mg, 40 mg Q2D oral, cycle 1 day 21, plasma, n 2): 760 ng/mL | Tmax ([1]; po, 40 mg, 40 mg Q2D oral, cycle 1 day 21, plasma, n 2, read-out: tmax, median (min, max)): 3 h | AUC ([1]; po, 80 mg, 80 mg Q2D oral, cycle 1 day 21, plasma, n 3, read-out: AUC48, geometric mean (%CV)): 42.7 µg·h/mL | Cmax ([1]; po, 80 mg, 80 mg Q2D oral, cycle 1 day 21, plasma, n 3): 2040 ng/mL | Tmax ([1]; po, 80 mg, 80 mg Q2D oral, cycle 1 day 21, plasma, n 3, read-out: tmax, median (min, max)): 4 h | AUC ([1]; po, 135 mg, 135 mg Q2D oral, cycle 1 day 21, plasma, n 3, read-out: AUC48, geometric mean (%CV)): 96.8 µg·h/mL | Cmax ([1]; po, 135 mg, 135 mg Q2D oral, cycle 1 day 21, plasma, n 3): 3320 ng/mL | Tmax ([1]; po, 135 mg, 135 mg Q2D oral, cycle 1 day 21, plasma, n 3, read-out: tmax, median (min, max)): 2 h | AUC ([1]; po, 200 mg, 200 mg (n=7) Q2D oral, cycle 1 day 21, plasma, n 6, read-out: AUC48, geometric mean (%CV)): 118 µg·h/mL | Cmax ([1]; po, 200 mg, 200 mg (n=7) Q2D oral, cycle 1 day 21, plasma, n 6): 3810 ng/mL | Tmax ([1]; po, 200 mg, 200 mg (n=7) Q2D oral, cycle 1 day 21, plasma, n 6, read-out: tmax, median (min, max)): 3 h | AUC ([1]; po, 200 mg, 200 mg (n=23; PK expansion cohort and 28-day cycle cohort) Q2D oral, cycle 1 day 21, plasma, n 14, read-out: AUC48, geometric mean (%CV)): 127 µg·h/mL | Cmax ([1]; po, 200 mg, 200 mg (n=23; PK expansion cohort and 28-day cycle cohort) Q2D oral, cycle 1 day 21, plasma, n 14): 3680 ng/mL | Tmax ([1]; po, 200 mg, 200 mg (n=23; PK expansion cohort and 28-day cycle cohort) Q2D oral, cycle 1 day 21, plasma, n 14, read-out: tmax, median (min, max)): 2 h | AUC ([1]; po, 280 mg, 280 mg Q2D oral, cycle 1 day 21, plasma, n 4, read-out: AUC48, geometric mean (%CV)): 155 µg·h/mL | Cmax ([1]; po, 280 mg, 280 mg Q2D oral, cycle 1 day 21, plasma, n 4): 4060 ng/mL | Tmax ([1]; po, 280 mg, 280 mg Q2D oral, cycle 1 day 21, plasma, n 4, read-out: tmax, median (min, max)): 3 h | AUC ([1]; po, 400 mg, 400 mg QW oral, cycle 1 day 22, plasma, n 3, read-out: AUC168, geometric mean (%CV)): 193 µg·h/mL | Cmax [1, 11]: 3140 ng/mL | Tmax ([1]; po, 400 mg, 400 mg QW oral, cycle 1 day 22, plasma, n 3, read-out: Tmax, median (min, max)): 3 h | half-life [1, 11]: 52 h | AUC ([1]; po, 600 mg, 600 mg QW oral, cycle 1 day 22, plasma, n 20, read-out: AUC168, geometric mean (%CV)): 330 µg·h/mL | Cmax [1, 12]: 5650 ng/mL | Tmax ([1]; po, 600 mg, 600 mg QW oral, cycle 1 day 22, plasma, n 20, read-out: Tmax, median (min, max)): 3 h | half-life [1, 12]: ~70 h | AUC ([1]; po, 800 mg, 800 mg QW oral, cycle 1 day 22, plasma, n 3, read-out: AUC168, geometric mean (%CV)): 473 µg·h/mL | Cmax [1, 13]: 6460 ng/mL | Tmax ([1]; po, 800 mg, 800 mg QW oral, cycle 1 day 22, plasma, n 3, read-out: Tmax, median (min, max)): 4 h | half-life [1, 13]: 68.1 h | accumulation in systemic circulation (day 22 AUC168 over day 1 AUC168) ([1]; repeated QW dosing, 400–800 mg): minimal accumulation; also recorded: Minimal to no apparent accumulation | IC50 [2]: 7.1 nM | blood–brain barrier penetration [3]: good blood–brain barrier penetration | affinity for monomeric versus dimeric forms of BRAF [4]: equal affinity | paradoxical activation of ERK signaling [5]: not to trigger paradoxical activation of ERK signaling | complete responses [6, 14]: 2 patients | partial responses [6, 14]: 3 patients | prolonged stable disease [6, 14]: two | patients with clinically meaningful activity ([6]; phase 1b part, 24 of 35 patients with MAPK pathway-altered cancers): 69% | complete responses ([6]; phase 1b part, 35 patients): 2 | partial responses ([6]; phase 1b part, 35 patients): 7 | stable diseases ([6]; phase 1b part, 35 patients): 15 | p-ERK suppression [7]: strong and sustained p-ERK suppression | effect on large, established xenograft tumors [8]: caused tumor regression | MTD ([9]; Q2D): 200 mg | MTD ([9]; QW): 600 mg | recommended phase 2 dose (RP2D) [9]: 200 mg | recommended phase 2 dose (RP2D) ([9]; 28 days): 600 mg | clinical benefit rate [10]: 91% | overall response rate [10]: 64%
